In patent US20110230419A1, “IAP BINDING COMPOUNDS” (Nuevolution A/S, priority 2008, published 2011) one finds IC50 data, which are given here for 22 compounds.

The term pIC50 denotes the IC50 on a negative log10 scale, so that one unit is a factor of ten.

pIC50: −log10 of the molar value. Where a SMILES comes first, the peptide text is derived from it. [ ]: non-standard residue; d: D form. Pro(cis-4-Ph) = O=C(O)[C@@H]1C[C@H](c2ccccc2)CN1; Phe(3-CN) = N#Cc1cccc(C[C@H](N)C(=O)O)c1; Ala(2-furyl) = N[C@@H](Cc1ccco1)C(=O)O; Abu = CC[C@H](N)C(=O)O

The target in the first test is T1, XIAP BIR3 (Homo sapiens, UniProt P98170). Nature of the test: Biotinylated BIR3 XIAP domain Alphascreen assay. More on the design: biotinylated XIAP BIR3; biotin (biotinylated). The conditions noted are these: biotinylated XIAP BIR3, FITC-labeled IAP-binding molecule, Streptavidin Donor / Anti-FITC Acceptor Beads, incubation 2 hours; concentration reducing alphascreen signal to half of maximum. As to the method:
Biotinylated BIR3 XIAP Domain Alphascreen Assay Compounds were incubated with Streptavidin Donor Beads, Anti-FITC Acceptor Beads, biotinylated XIAP BIR3 and a FITC-labeled IAP-binding molecule. Following incubation for 2 hours the wells were read in an Envision reader. IC50s correspond to the concentration of compound which reduces the alphascreen signal to half of the maximum.
In general terms: Alpha assays give light when donor and acceptor beads are brought close together.
Target sequence in this assay (P98170 241-356 limits assumed): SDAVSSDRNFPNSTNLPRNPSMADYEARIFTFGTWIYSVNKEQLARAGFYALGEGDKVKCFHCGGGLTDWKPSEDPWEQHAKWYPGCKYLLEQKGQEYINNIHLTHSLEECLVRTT
The compound `C[C@H](N)C(=O)N[C@@H](Cc1cccc(C(N)=O)c1)C(=O)N1CC(C(=O)NC2CCc3ccccc32)C1c1ccccc1` (stereo in doubt) [Example 24, 1-((S)-2-((S)-2-aminopropanamido)-3-(3-carbamoylphenyl)propanoyl)-N—((R)-2,3-dihydro-1H-inden-1-yl)-2-phenylazetidine-3-carboxamide] had a pIC50 of 7.00 to 10.00. In the case of `CC(N)c1ccc(C(=O)N2C[C@@H](c3ccccc3)C[C@H]2CN2CC[C@H](c3ccccc3)C2)o1` (stereo partly drawn) [Example 2, (5-(1-Aminoethyl)furan-2-yl)((2S,4R)-4-phenyl-2-(((R)-3-phenylpyrrolidin-1-yl)methyl)pyrrolidin-1-yl)methanone], the pIC50 was 6.00 to 7.00. As for `CC(N)c1ccc(C(=O)N2C[C@@H](c3ccccc3)C[C@H]2C(=O)N2CC[C@H](c3ccccc3)C2)o1` (stereo partly drawn) [Example 5, [5-(1-Amino-ethyl)-furan-2-yl]-[(2S,4R)-4-phenyl-2-((R)-3-phenyl-pyrrolidine-1-carbonyl)-pyrrolidin-1-yl]-methanone], the pIC50 was 7.00 to 10.00. Compound `CC(N)c1cccc(C(=O)N2C[C@@H](c3ccccc3)C[C@H]2C(=O)N2CC[C@H](c3ccccc3)C2)c1` (stereo partly drawn) [Example 6, [3-(1-Amino-ethyl)-phenyl]-[(2S,4R)-4-phenyl-2-((R)-3-phenyl-pyrrolidine-1-carbonyl)-pyrrolidin-1-yl]-methanone] had a pIC50 of 6.00 to 7.00.

Take `C[C@@H](N)C1CCCC(C(=O)N2C[C@@H](c3ccccc3)C[C@H]2C(=O)N2CC[C@H](c3ccccc3)C2)N1` (stereo partly drawn) [Example 7, [6-((R)-1-Amino-ethyl)-piperidin-2-yl]-[(2S,4R)-4-phenyl-2-((R)-3-phenyl-pyrrolidine-1-carbonyl)-pyrrolidin-1-yl]-methanone]: the pIC50 was less than 6.00.

In the case of `C[C@H](N)C1CCCC(C(=O)N2C[C@@H](c3ccccc3)C[C@H]2C(=O)N2CC[C@H](c3ccccc3)C2)N1` (stereo partly drawn) [Example 8, [6-((S)-1-Amino-ethyl)-piperidin-2-yl]-[(2S,4R)-4-phenyl-2-((R)-3-phenyl-pyrrolidine-1-carbonyl)-pyrrolidin-1-yl]-methanone], the negative-log IC50 (pIC50) is 6.00 to 7.00. The same measure, in the same setting: next, `CNC(=O)[C@@H]1C[C@H](c2ccccc2)CN1C(=O)[C@@H]1C[C@H](c2ccccc2)CN1C(=O)[C@H](Cc1ccco1)NC(=O)[C@H](C)N` [Example 15] (H-A[Ala(2-furyl)][Pro(cis-4-Ph)][Pro(cis-4-Ph)]-NHMe): 7.00 to 10.00; `CC[C@H](NC(=O)[C@H](C)N)C(=O)N1C[C@@H](c2ccccc2)C[C@H]1C(=O)N1C[C@@H](c2ccccc2)C[C@H]1C(=O)NC` [Example 16, (2S,4R)-1-((3R,5S)-1-((S)-2-((S)-2-aminopropanamido)butanoyl)-3-phenylpyrrolidine-5-carbonyl)-N-methyl-4-phenylpyrrolidine-2-carboxamide] (H-A[Abu][Pro(cis-4-Ph)][Pro(cis-4-Ph)]-NHMe): 7.00 to 10.00; `C[C@@H](N)C(=O)N[C@@H](Cc1ccc(C(N)=O)cc1)C(=O)N1C[C@@H](c2ccccc2)C[C@H]1C(=O)N[C@@H]1CCc2ccccc21` [Example 17, (2S,4R)-1-((S)-2-((R)-2-aminopropanamido)-3-(4-carbamoylphenyl)propanoyl)-N—((R)-2,3-dihydro-1H-inden-1-yl)-4-phenylpyrrolidine-2-carboxamide]: 7.00 to 10.00.

For the compound `C[C@H](N)C(=O)N[C@@H](Cc1cccc(C(N)=O)c1)C(=O)N1CC(c2ccccc2)C1C(=O)N[C@@H]1CCc2ccccc21` (stereo partly drawn) [Example 18, 1-((S)-2-((S)-2-aminopropanamido)-3-(3-carbamoylphenyl)propanoyl)-N—((R)-2,3-dihydro-1H-inden-1-yl)-3-phenylazetidine-2-carboxamide], the negative-log IC50 (pIC50) is 7.00 to 10.00. As to `C[C@H](N)C(=O)N[C@@H](Cc1cccc(C#N)c1)C(=O)N1C[C@@H](c2ccccc2)C[C@H]1C(=O)N[C@@H]1CCc2ccccc21` [Example 19, (2S,4R)-1-((S)-2-((S)-2-aminopropanamido)-3-(3-cyanophenyl)propanoyl)-N—((R)-2,3-dihydro-1H-inden-1-yl)-4-phenylpyrrolidine-2-carboxamide], the negative logarithm of the IC50 (pIC50) was 7.00 to 10.00. For `CNC(=O)[C@@H]1C[C@H](c2ccccc2)CN1C(=O)[C@@H]1C[C@H](c2ccccc2)CN1C(=O)[C@H](Cc1cccc(C#N)c1)NC(=O)[C@H](C)N` [Example 20, (2S,4R)-1-((3R,5S)-1-((S)-2-((S)-2-aminopropanamido)-3-(3-cyanophenyl)propanoyl)-3-phenylpyrrolidine-5-carbonyl)-N-methyl-4-phenylpyrrolidine-2-carboxamide] (H-A[Phe(3-CN)][Pro(cis-4-Ph)][Pro(cis-4-Ph)]-NHMe), the pIC50 was 7.00 to 10.00.

Regarding `CNC(=O)[C@@H]1C[C@H](c2ccccc2)CN1C(=O)[C@@H]1C[C@H](c2ccccc2)CN1C(=O)C(Cn1cncn1)NC(=O)[C@H](C)N` (stereo partly drawn) [Example 21, (2S,4R)-1-((3R,5S)-1-(2-((S)-2-aminopropanamido)-3-(1H-1,2,4-triazol-1-yl)propanoyl)-3-phenylpyrrolidine-5-carbonyl)-N-methyl-4-phenylpyrrolidine-2-carboxamide], the pIC50 is 7.00 to 10.00.

Compound `CC[C@H](NC)C(=O)N[C@@H](Cc1cccc(C#N)c1)C(=O)N1C[C@@H](c2ccccc2)C[C@H]1CN1CC[C@H](c2ccccc2)C1` [Example 22, (S)—N—((S)-3-(3-cyanophenyl)-1-oxo-1-((2S,4R)-4-phenyl-2-(((R)-3-phenylpyrrolidin-1-yl)methyl)pyrrolidin-1-yl)propan-2-yl)-2-(methylamino)butanamide] showed a pIC50 of 7.00 to 10.00. Same read-out and setting: the figure for `C[C@@H](N)C(=O)N[C@@H](Cc1cccc(C(N)=O)c1)C(=O)N1C[C@@H](c2ccccc2)C[C@H]1C(=O)N[C@@H]1CCc2ccccc21` [Example 23, (2S,4R)-1-((S)-2-((R)-2-aminopropanamido)-3-(3-carbamoylphenyl)propanoyl)-N—((R)-2,3-dihydro-1H-inden-1-yl)-4-phenylpyrrolidine-2-carboxamide] is 7.00 to 10.00.

For a further test, the target named is T1, XIAP BIR3. As to the kind of experiment: HIS-tagged BIR3 XIAP domain Alphascreen assay. Particulars: HIS-tagged XIAP BIR3 (RnD systems), biotin-labeled IAP-binding molecule, Streptavidin Donor / Ni-NTA Acceptor Beads, incubation 2 hours; concentration reducing alphascreen signal to half of maximum. More on the design: HIS-tagged XIAP BIR3 (RnD systems); purchased RnD systems. As for the experimental part:
HIS-Tagged BIR3 XIAP Domain Alphascreen Assay
Compounds were incubated with Streptavidin Donor Beads, Ni-NTA Acceptor Beads, HIS-tagged XIAP BIR3 (RnD systems) and a biotin-labeled IAP-binding molecule. Following incubation for 2 hours the wells were read in an Envision reader. IC50s correspond to the concentration of compound which reduces the alphascreen signal to half of the maximum.
Target sequence in this assay (P98170 252-356 limits assumed): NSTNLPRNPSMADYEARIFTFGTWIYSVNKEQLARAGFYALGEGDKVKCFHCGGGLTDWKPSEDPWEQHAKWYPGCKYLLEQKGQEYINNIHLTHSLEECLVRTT
For the compound `CNC(C)c1ccc(C(=O)N2C[C@@H](c3ccccc3)C[C@H]2C(=O)N2CC[C@H](c3ccccc3)C2)o1` (stereo partly drawn) [Example 1, [5-(1-Methylamino-ethyl)-furan-2-yl]-[(2S,4R)-4-phenyl-2-((R)-3-phenyl-pyrrolidine-1-carbonyl)-pyrrolidin-1-yl]-methanone], the pIC50 was 7.00 to 10.00. On the same count and under the same terms, the figure for `CNC(C)c1cccc(C(=O)N2C[C@@H](c3ccccc3)C[C@H]2C(=O)N2CC[C@H](c3ccccc3)C2)c1` (stereo partly drawn) [Example 3, [3-(1-Methylamino-ethyl)-phenyl]-[(2S,4R)-4-phenyl-2-((R)-3-phenyl-pyrrolidine-1-carbonyl)-pyrrolidin-1-yl]-methanone] is 6.00 to 7.00; for `CNC(C)c1ccc(C(=O)N2C[C@@H](c3ccc(F)cc3)C[C@H]2C(=O)N2CCC(c3ccc(F)cc3)C2)o1` (stereo partly drawn) [Example 9, {(2S,4R)-4-(4-Fluoro-phenyl)-2-[3-(4-fluoro-phenyl)-pyrrolidine-1-carbonyl]-pyrrolidin-1-yl}-[5-(1-methylamino-ethyl)-furan-2-yl]-methanone] it is 7.00 to 10.00; for `CNC(C)c1ccc(C(=O)N2C[C@@H](c3ccccc3)C[C@H]2CN2CC[C@H](c3ccccc3)C2)o1` (stereo partly drawn) [Example 10, (5-(1-(methylamino)ethyl)furan-2-yl)((2S,4R)-4-phenyl-2-(((R)-3-phenylpyrrolidin-1-yl)methyl)pyrrolidin-1-yl)methanone] it is 6.00 to 7.00. The same measure, in the same setting: next, `CNC(C)c1cccc(C(=O)N2C[C@@H](c3ccccc3)C[C@H]2CN2CC[C@H](c3ccccc3)C2)c1` (stereo partly drawn) [Example 11, (3-(1-(methylamino)ethyl)phenyl)((2S,4R)-4-phenyl-2-(((R)-3-phenylpyrrolidin-1-yl)methyl)pyrrolidin-1-yl)methanone]: 6.00 to 7.00; `O=C(N[C@@H]1CCc2ccccc21)[C@@H]1C[C@@H](C2CCCCC2)CN1C(=O)C1CC2(CCNCC2)CN1` (stereo partly drawn) [Example 13, (2S,4S)-4-Cyclohexyl-1-(2,8-diaza-spiro[4.5]decane-3-carbonyl)-pyrrolidine-2-carboxylic acid (R)-indan-1-ylamide]: 6.00 to 7.00. On to `O=C(N[C@H](C(=O)N[C@@H]1CCc2ccccc21)C1CCCCC1)C1CC2(CCNCC2)CN1` (stereo partly drawn) [Example 14, 2,8-Diaza-spiro[4.5]decane-3-carboxylic acid [(S)-cyclohexyl-((R)-indan-1-ylcarbamoyl)-methyl]-amide], for which the negative logarithm of the IC50 (pIC50) was 6.00 to 7.00.
